Results on 4 compounds are retold here after patent US11413305B2, “Use of agar-derived oligosaccharides for inhibiting growth of Staphylococcus” (Korea University Research and Business Foundation, priority 2017, dated 2022).

Where only a bound is given, the exact number is not on record here.

The subject of one assay is S. aureus (KCCM12256). The experiment in a line: Growth inhibition experiment in liquid medium (absorbance at 600 nm). The class given is cell-based, Staphylococcus aureus. As to conditions: for concentration at which growth was completely inhibited: liquid M9-based medium, 37° C., 200 rpm, OD600. The protocol:
(§1) S. aureus (KCCM12256) and S. epidermidis (KCCM35494) distributed from the Korean Culture Center of Microorganisms were used. The medium for Staphylococci used a M9 salt supplemented with 2 mM MgSO4, 0.1 mM CaCl2), 1% (w/v) glucose, 1% (w/v) casamino acid, 1 mM thiamine HCl, and 0.05 mM nicotinamide. The thiamine-HCl solution and the nicotinamide solution were filtered using a filter having a pore size of 0.2 μm, and the other components were autoclaved at 121° C. for 15 minutes and used. After mixing the medium components according to their respective concentrations, the mixture was filtered again using a filter having a pore size of 0.2 μm.
(§2) In the growth inhibition experiment, the S. aureus and the S. epidermidis were seed-cultured at 37° C. and 200 rpm for 24 hours and then subcultured. After incubation up to the mid-exponential phase (OD600=2.5) through the subculture, the bacteria were inoculated into liquid media containing the agarooligosaccharide at concentrations of 0 mg/mL, 1 mg/mL, 2 mg/mL, and 4 mg/mL so that the initial absorbance (i.e., initial cell population) thereof at 600 nm was 0.01. Subsequently, each of the above was dispensed in 200 μl aliquots into a 96-well plate, and absorbance was measured while culturing the bacteria. The incubation and the absorbance measurement were performed using Synergy HTX Multi-Mode Reader commercially available from BioTek Instruments, Inc. The incubation was performed at 37° C. and 200 rpm, and the absorbance was measured at a wavelength of 600 nm. […]
The growth inhibition test of Staphylococci was carried out in the same manner as in Example 1, except that AHG (1, 2, 4, and 8 mg/mL) was used instead of the agarooligosaccharide. […]

The test system of assay [1] is S. epidermidis. Kind of assay: Number of viable Staphylococci over culture time (CFU count). The class given is cell-based, Staphylococcus epidermidis. The method, then:
(§3) In order to observe changes in staphylococcal growth according to culture time after the addition of agarobiose, the number of viable Staphylococci was monitored for 16 hours or 32 hours. To this end, the initial cell concentration was adjusted to an average of about 6.5×10^6 CFU/mL for both S. aureus and S. epidermidis, and the experiment was carried out at agarobiose concentrations of 0, 2, and 4 mg/mL.
(§4) The same culture conditions as in the method of Example 1 were applied, except that agarobiose concentrations of 0, 2, and 4 mg/mL were applied. At a working volume of 10 mL, the number of viable cells instead of absorbance was measured. To this end, the original sample was taken at each time point, diluted to 10^−3 to 10^−6 using 0.85% physiological saline, and then dispensed onto a trypticase soy agar (TSA; BD Bioscience, Franklin Lakes, N.J.) medium. After 16 to 24 hours, colony-forming unit (CFU)/mL was calculated and converted based on a dilution factor.

Assay [2] has as its system S. aureus. The assay is described as above. The class given is cell-based, Staphylococcus aureus. As to conditions: agarobiose concentrations of 2 mg/mL or more. The method, then: as §3, §4
For assay [3], the system named is S. epidermidis. The experiment in a line: Disk diffusion assay. The class given is cell-based, Staphylococcus epidermidis. As to conditions: 50 to 150 μg/disk, 37° C., 16 hours. The method, then:
(§5) The disk diffusion assay is a common method of determining whether microbial growth is inhibited based on the diffusion of antibiotics in a disk. Accordingly, agarobiose was dispensed in an amount of 0 to 150 μg/disk on each disk to observe the growth of Staphylococci.
(§6) To this end, a solid medium for a disk diffusion assay having the same composition as in Example 1 was used, except that 1.5% agar was added to the liquid medium. […] First, the disks were prepared such that they contained agarobiose in an aqueous state in amounts of 0, 50, 100, and 150 μg/disk. Subsequently, a staphylococcal culture was streaked on the provided solid medium using a sterile cotton swab so that the Staphylococci were evenly distributed on the medium, and the prepared disks were placed on the solid medium inoculated with the bacteria. Subsequently, after culturing the bacteria at 37° C. for 16 hours, it was observed that a zone of inhibition appeared.

Assay [4] has as its system S. aureus. Kind of assay: Disk diffusion assay. The class given is cell-based, Staphylococcus aureus. As to conditions: 50 to 150 μg/disk, 37° C., 16 hours. The method, then:
as §5, §6

For assay [5], the system named is S. aureus. Kind of assay: LIVE/DEAD BacLight cell viability assay. It is filed as cell-based, Staphylococcus aureus. As to conditions: agarobiose 2 mg/mL, 8 hours post-treatment. The protocol:
The effect of the addition of agarobiose on the survival of S. aureus was tested using an Invitrogen LIVE/DEAD BacLight bacterial viability kit. […] To this end, after adjusting the number of S. aureus in a liquid medium containing agarobiose at 2 mg/mL so that the absorbance at 600 nm was 0.5, the S. aureus was cultured at 37° C. and 200 rpm. At 0 and 8 hours after incubation, the cells were washed with 0.85% physiological saline, resuspended in PBS buffer, and stained in accordance with the kit's protocol. Equal volumes of SYTO® 9 and propidium iodide reagents included in the kit were added and then reacted for 15 minutes in the dark.

Assay [6] has as its system S. epidermidis (KCCM35494). Kind of assay: Growth inhibition experiment in liquid medium (absorbance at 600 nm). The class given is cell-based, Staphylococcus epidermidis. The protocol: as §1
as §2, with “bacteria.” for “bacteria. The incubation and the absorbance measurement were performed using Synergy HTX Multi-Mode Reader commercially available from BioTek Instruments, Inc. The incubation was performed at 37° C. and 200 rpm, and the absorbance was measured at a wavelength of 600 nm.”

[7] abbreviates: liquid medium, OD600, 1, 2, 4 and 8 mg/mL tested.

Take `OC[C@H]1OC(O)[C@H](O)[C@@H](O[C@@H]2O[C@H]3CO[C@@H]([C@@H]2O)[C@@H]3O)[C@H]1O` (stereo partly drawn) [neoagarobiose, reference compound]: in the assay with S. aureus (KCCM12256), the “concentration at which growth was completely inhibited” value is recorded as greater than 20 mg/mL.
Turning to `O=C[C@H](O)[C@@H](O)[C@@H](O)[C@H](O)CO` [galactose, reference compound], the growth inhibition result in the assay on S. aureus (KCCM12256) (setting [7]) was “not inhibited at all”.
With `OC[C@H]1O[C@@H](O[C@H]2[C@H]3OC[C@@H]2OC(O)[C@H]3O)[C@H](O)[C@@H](O)[C@H]1O` (mixture of isomers) [agarobiose], the “decrease in number of viable cells from the initial number” value with S. epidermidis [1] (2 mg/mL and 4 mg/mL, culturing for 16 to 32 hours, initial 6.5×10^6 CFU/mL) is recorded as ≤ 1.5 log10 (CFU/mL). The “growth (viable cell count)” value in the assay on S. epidermidis [1] (agarobiose concentrations of 2 mg/mL or more) and in the assay with S. aureus [2] was “inhibited” in each case. Further, the “growth around disk (zone of inhibition)” value in the assay on S. epidermidis [3] and in the assay with S. aureus [4] was “did not grow at all” throughout. For the same compound, in the assay with S. aureus [5], the “cell viability (green/red fluorescence)” value is recorded as “caused the death of S. aureus”. The “concentration at which growth was completely inhibited” value in assay [6] (liquid M9-based medium, 37° C., 200 rpm, OD600) is given as 2 mg/mL; in the assay on S. aureus (KCCM12256) it was 2 mg/mL.
With `O=C[C@@H](O)[C@@H]1OC[C@H](O)[C@H]1O` [AHG, 3,6-anhydro-L-galactose], the “concentration at which growth was almost completely inhibited” value (in assay [6] (setting [7]); with S. aureus (KCCM12256) (setting [7])) was 8 mg/mL in each case.
